Measurements reported in PubChem BioAssay (NCI).
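At the GI50, growth is halved. TGI is the concentration that stops growth completely.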

Key:
Assay in all cases: DTP human tumour cell line panel, 384-well format
COLO 205 colon = test system: COLO 205 colon
786-0 renal = test system: 786-0 renal
SK-MEL-5 melanoma = test system: SK-MEL-5 melanoma
DU-145 prostate = test system: DU-145 prostate
OVCAR-4 ovarian = test system: OVCAR-4 ovarian
SK-MEL-2 melanoma = test system: SK-MEL-2 melanoma
OVCAR-3 ovarian = test system: OVCAR-3 ovarian
HOP-62 NSCLC = test system: HOP-62 NSCLC
K-562 leukemia = test system: K-562 leukemia
NCI/ADR-RES ovarian = test system: NCI/ADR-RES ovarian
SR leukemia = test system: SR leukemia
MOLT-4 leukemia = test system: MOLT-4 leukemia
KM12 colon = test system: KM12 colon
MDA-MB-435 melanoma = test system: MDA-MB-435 melanoma
M14 melanoma = test system: M14 melanoma
SN12C renal = test system: SN12C renal
A498 renal = test system: A498 renal
SNB-19 CNS = test system: SNB-19 CNS
HL-60(TB) leukemia = test system: HL-60(TB) leukemia
PC-3 prostate = test system: PC-3 prostate
TK-10 renal = test system: TK-10 renal
HCT-116 colon = test system: HCT-116 colon
SF-268 CNS = test system: SF-268 CNS
CCRF-CEM leukemia = test system: CCRF-CEM leukemia
NCI-H522 lung = test system: NCI-H522 lung
HOP-92 NSCLC = test system: HOP-92 NSCLC
ACHN renal = test system: ACHN renal
LOX IMVI melanoma = test system: LOX IMVI melanoma
UACC-62 melanoma = test system: UACC-62 melanoma
UACC-257 melanoma = test system: UACC-257 melanoma
OVCAR-8 ovarian = test system: OVCAR-8 ovarian
NCI-H322M lung = test system: NCI-H322M lung
NCI-H226 lung = test system: NCI-H226 lung
IGROV1 ovarian = test system: IGROV1 ovarian
MALME-3M melanoma = test system: MALME-3M melanoma
T-47D breast = test system: T-47D breast
SF-295 CNS = test system: SF-295 CNS
MDA-MB-468 breast = test system: MDA-MB-468 breast
RPMI-8226 leukemia = test system: RPMI-8226 leukemia
MCF7 breast = test system: MCF7 breast
HCT-15 colon = test system: HCT-15 colon
CAKI-1 renal = test system: CAKI-1 renal
SW-620 colon = test system: SW-620 colon
OVCAR-5 ovarian = test system: OVCAR-5 ovarian
RXF 393 renal = test system: RXF 393 renal
HCC-2998 colon = test system: HCC-2998 colon
SK-OV-3 ovarian = test system: SK-OV-3 ovarian
HT29 colon = test system: HT29 colon
UO-31 renal = test system: UO-31 renal
A549 NSCLC = test system: A549 NSCLC
U251 glioblastoma = test system: U251 glioblastoma
NCI-H460 NSCLC = test system: NCI-H460 NSCLC
NCI-H23 lung = test system: NCI-H23 lung
MDA-MB-231 breast = test system: MDA-MB-231 breast
SK-MEL-28 melanoma = test system: SK-MEL-28 melanoma
SF-539 CNS = test system: SF-539 CNS
BT-549 breast = test system: BT-549 breast

`Cn1ncnc1[C@@H]1c2n[nH]c(=O)c3cc(F)cc(c23)N[C@H]1c1ccc(F)cc1` gave a GI50 (COLO 205 colon) greater than 100 µM, a TGI (COLO 205 colon) greater than 100 µM and a GI50 ([…]-0 renal) greater than 100 µM. It also gave a TGI (786-0 renal) greater than 100 µM, a GI50 (SK-MEL-5 melanoma) greater than 100 µM and a TGI (SK-MEL-5 melanoma) greater than 100 µM. It also gave a GI50 (DU-145 prostate) greater than 100 µM, a TGI (DU-145 prostate) greater than 100 µM and a GI50 (OVCAR-4 ovarian) greater than 100 µM. The TGI (OVCAR-4 ovarian) was greater than 100 µM, the GI50 (SK-MEL-2 melanoma) was greater than 100 µM and the TGI (SK-MEL-2 melanoma) was greater than 100 µM. The GI50 (OVCAR-3 ovarian) was greater than 100 µM, the TGI (OVCAR-3 ovarian) was greater than 100 µM and the GI50 (HOP-62 NSCLC) was greater than 100 µM. The TGI (HOP-62 NSCLC) was greater than 100 µM, the GI50 (K-562 leukemia) was greater than 100 µM and the TGI (K-562 leukemia) was greater than 100 µM. For the same compound, the GI50 (NCI/ADR-RES ovarian) was greater than 100 µM, the TGI (NCI/ADR-RES ovarian) was greater than 100 µM and the GI50 (SR leukemia) was 2.61 µM. For the same compound, the TGI (SR leukemia) was 11.6 µM, the GI50 (MOLT-4 leukemia) was 11.4 µM and the TGI (MOLT-4 leukemia) was 24.6 µM. The GI50 (KM12 colon) was greater than 100 µM, the TGI (KM12 colon) was greater than 100 µM and the GI50 (MDA-MB-435 melanoma) was greater than 100 µM. The TGI (MDA-MB-435 melanoma) was greater than 100 µM, the GI50 (M14 melanoma) was greater than 100 µM and the TGI (M14 melanoma) was greater than 100 µM. The GI50 (SN12C renal) was greater than 100 µM, the TGI (SN12C renal) was greater than 100 µM and the GI50 (A498 renal) was greater than 100 µM. The TGI (A498 renal) was greater than 100 µM, the GI50 (SNB-19 CNS) was greater than 100 µM and the TGI (SNB-19 CNS) was greater than 100 µM. For the same compound, the GI50 (HL-60(TB) leukemia) was greater than 100 µM, the TGI (HL-60(TB) leukemia) was greater than 100 µM and the GI50 (PC-3 prostate) was greater than 100 µM. It also gave a TGI (PC-3 prostate) greater than 100 µM, a GI50 (TK-10 renal) greater than 100 µM and a TGI (TK-10 renal) greater than 100 µM. For the same compound, the GI50 (HCT-116 colon) was 74.9 µM, the TGI (HCT-116 colon) was greater than 100 µM and the GI50 (SF-268 CNS) was greater than 100 µM. It also gave a TGI (SF-268 CNS) greater than 100 µM, a GI50 (CCRF-CEM leukemia) of 40.9 µM and a TGI (CCRF-CEM leukemia) greater than 100 µM. For the same compound, the GI50 (NCI-H522 lung) was 97.7 µM, the TGI (NCI-H522 lung) was greater than 100 µM and the GI50 (HOP-92 NSCLC) was greater than 100 µM. For the same compound, the TGI (HOP-92 NSCLC) was greater than 100 µM, the GI50 (ACHN renal) was greater than 100 µM and the TGI (ACHN renal) was greater than 100 µM. It also gave a GI50 (LOX IMVI melanoma) greater than 100 µM, a TGI (LOX IMVI melanoma) greater than 100 µM and a GI50 (UACC-62 melanoma) greater than 100 µM. For the same compound, the TGI (UACC-62 melanoma) was greater than 100 µM, the GI50 (UACC-257 melanoma) was greater than 100 µM and the TGI (UACC-257 melanoma) was greater than 100 µM. The GI50 (OVCAR-8 ovarian) was greater than 100 µM, the TGI (OVCAR-8 ovarian) was greater than 100 µM and the GI50 (NCI-H322M lung) was greater than 100 µM. It also gave a TGI (NCI-H322M lung) greater than 100 µM, a GI50 (NCI-H226 lung) greater than 100 µM and a TGI (NCI-H226 lung) greater than 100 µM. The GI50 (IGROV1 ovarian) was greater than 100 µM, the TGI (IGROV1 ovarian) was greater than 100 µM and the GI50 (MALME-3M melanoma) was greater than 100 µM. The TGI (MALME-3M melanoma) was greater than 100 µM, the GI50 (T-47D breast) was greater than 100 µM and the TGI (T-47D breast) was greater than 100 µM. The GI50 (SF-295 CNS) was greater than 100 µM, the TGI (SF-295 CNS) was greater than 100 µM and the GI50 (MDA-MB-468 breast) was 57.1 µM. It also gave a TGI (MDA-MB-468 breast) greater than 100 µM, a GI50 (RPMI-8226 leukemia) of 78.9 µM and a TGI (RPMI-8226 leukemia) greater than 100 µM. For the same compound, the GI50 (MCF7 breast) was greater than 100 µM, the TGI (MCF7 breast) was greater than 100 µM and the GI50 (HCT-15 colon) was greater than 100 µM. For the same compound, the TGI (HCT-15 colon) was greater than 100 µM, the GI50 (CAKI-1 renal) was greater than 100 µM and the TGI (CAKI-1 renal) was greater than 100 µM. The GI50 (SW-620 colon) was 70.9 µM, the TGI (SW-620 colon) was greater than 100 µM and the GI50 (OVCAR-5 ovarian) was greater than 100 µM. The TGI (OVCAR-5 ovarian) was greater than 100 µM, the GI50 (RXF 393 renal) was 52.3 µM and the TGI (RXF 393 renal) was greater than 100 µM. For the same compound, the GI50 (HCC-2998 colon) was 43.1 µM, the TGI (HCC-2998 colon) was greater than 100 µM and the GI50 (SK-OV-3 ovarian) was greater than 100 µM. The TGI (SK-OV-3 ovarian) was greater than 100 µM, the GI50 (HT29 colon) was greater than 100 µM and the TGI (HT29 colon) was greater than 100 µM. It also gave a GI50 (UO-31 renal) greater than 100 µM, a TGI (UO-31 renal) greater than 100 µM and a GI50 (A549 NSCLC) greater than 100 µM. It also gave a TGI (A549 NSCLC) greater than 100 µM, a GI50 (U251 glioblastoma) greater than 100 µM and a TGI (U251 glioblastoma) greater than 100 µM. The GI50 (NCI-H460 NSCLC) was 17.3 µM, the TGI (NCI-H460 NSCLC) was greater than 100 µM and the GI50 (NCI-H23 lung) was greater than 100 µM. It also gave a TGI (NCI-H23 lung) greater than 100 µM, a GI50 (MDA-MB-231 breast) greater than 100 µM and a TGI (MDA-MB-231 breast) greater than 100 µM. It also gave a GI50 (SK-MEL-28 melanoma) greater than 100 µM, a TGI (SK-MEL-28 melanoma) greater than 100 µM and a GI50 (SF-539 CNS) greater than 100 µM. It also gave a TGI (SF-539 CNS) greater than 100 µM, a GI50 (BT-549 breast) greater than 100 µM and a TGI (BT-549 breast) greater than 100 µM.
